From EP1074549B1, “Tetrahydro-benzo(d)azepines and their use as antagonists at metabotropic glutamate receptors” (F. HOFFMANN-LA ROCHE AG, priority 1999, dated 2001)

Key:
[1] = molecular target: T1, rat mGluR1a receptor (Rattus norvegicus, UniProt P23385); assay: binding assay for the characterization of mGluR 1 antagonistic properties (tritiated radioligand displacement); details: membranes from HEK 293 cells transfected with rat mGluR1a; tritiated 1-ethyl-2-methyl-6-oxo-4-(1,1,2-tritritio-1,2,4,5-tetrahydro-benzo[d]azepin-3-yl)-1,6-dihydro-pyrimidine-5-carbonitrile at 3 nM; 1 hour at room temperature; read-out: B-IC 50
T1 construct: expressed in transfected cells; host or cells: HEK 293 cells (transient transfection), membrane preparation
T1 sequence (P23385 19-1199): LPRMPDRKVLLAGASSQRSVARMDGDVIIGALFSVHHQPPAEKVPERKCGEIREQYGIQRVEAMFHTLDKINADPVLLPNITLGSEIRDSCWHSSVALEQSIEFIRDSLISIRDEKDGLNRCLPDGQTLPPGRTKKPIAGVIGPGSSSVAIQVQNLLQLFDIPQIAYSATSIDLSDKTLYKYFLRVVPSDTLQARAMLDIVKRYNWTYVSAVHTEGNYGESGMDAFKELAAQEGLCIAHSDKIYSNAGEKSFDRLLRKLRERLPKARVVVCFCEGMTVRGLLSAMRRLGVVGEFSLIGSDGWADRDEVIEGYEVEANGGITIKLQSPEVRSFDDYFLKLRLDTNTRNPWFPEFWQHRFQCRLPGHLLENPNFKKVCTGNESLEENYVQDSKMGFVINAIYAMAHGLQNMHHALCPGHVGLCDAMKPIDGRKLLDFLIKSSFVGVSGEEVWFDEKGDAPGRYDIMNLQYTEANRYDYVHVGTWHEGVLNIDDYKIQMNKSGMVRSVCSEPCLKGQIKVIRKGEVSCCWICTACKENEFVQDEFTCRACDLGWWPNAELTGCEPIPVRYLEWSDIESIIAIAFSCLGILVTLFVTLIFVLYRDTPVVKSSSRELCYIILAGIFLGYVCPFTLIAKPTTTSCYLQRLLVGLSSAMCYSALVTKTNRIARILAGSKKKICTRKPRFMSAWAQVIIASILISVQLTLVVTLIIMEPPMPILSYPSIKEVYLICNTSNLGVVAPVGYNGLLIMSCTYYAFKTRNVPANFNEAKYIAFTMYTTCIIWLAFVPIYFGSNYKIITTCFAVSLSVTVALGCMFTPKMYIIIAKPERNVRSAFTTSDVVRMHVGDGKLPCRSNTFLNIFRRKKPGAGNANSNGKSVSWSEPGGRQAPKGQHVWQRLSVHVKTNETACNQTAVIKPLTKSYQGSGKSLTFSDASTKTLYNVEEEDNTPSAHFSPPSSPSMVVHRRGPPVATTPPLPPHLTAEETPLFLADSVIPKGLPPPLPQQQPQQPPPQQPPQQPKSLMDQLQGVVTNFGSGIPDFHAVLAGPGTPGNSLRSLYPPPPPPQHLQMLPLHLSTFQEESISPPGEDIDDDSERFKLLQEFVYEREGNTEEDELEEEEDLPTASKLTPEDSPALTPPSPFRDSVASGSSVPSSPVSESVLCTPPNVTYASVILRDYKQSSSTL
Method: b) binding assay for the characterization of mGluR 1 antagonistic properties
Binding assay with tritiated 1-ethyl-2-methyl-6-oxo-4-(1,1,2-tritritio-1,2,4,5-tetrahydro-benzo[d]azepin-3-yl)-1,6-dihydro-pyrimidine-5-carbonitrile: HEK 293 cells were transiently transfected with the rat mGluR1a receptor. The cells were collected and washed 3 times with PBS. The cell pellets were frozen at -80 °C. Membranes were prepared from HEK 293 cells transfected with the rat mGluR1a receptor and used in the binding experiments at 10 µg proteins per assay after resuspension in a HEPES NaOH 20mM, pH=7.4 binding buffer. 1-Ethyl-2-methyl-6-oxo-4-(1,1,2-tritritio-1,2,4,5-tetrahydro-benzo[d]azepin-3-yl)-1,6-dihydro-pyrimidine-5-carbonitrile (S.A 33.4Ci/mmol) was used at 3 nM final concentration. The incubation with variable concentrations of potential inhibitors was performed for 1 hour at room temperature, the incubate was then filtered onto GF/B glass fiber filter preincubated 1 hour in PEI 0,1% and washed 3 times with 1ml of cold binding buffer. The radioactivity retained on the unifilter 96 was counted using a Topcount β counter. After correction for non specific binding the data were normalized and the IC50 value calculated using a 4 parameters logistic equation which was fitted to the inhibition curve.

[2] = molecular target: T1, rat mGluR1a receptor; assay: functional assay for the characterization of mGluR 1 antagonistic properties ([Ca2+]i measurement, FLIPR); type: cell-based; details: mGluR1a transfected HEK-EBNA cells; 10 µM glutamate as agonist; antagonists applied 5 minutes prior to agonist; read-out: F-IC 50
Method: a) functional assay for the characterization of mGluR 1 antagonistic properties
cDNA encoding rat mGluR1a receptor obtained from Prof. S. Nakanishi (Kyoto, Japan) was transiently transfected into HEK-EBNA cells using a procedure described by Schlaeger et. al., New Dev. New Appl. Anim. Cell Techn., Proc. ESACT Meet., 15th ( 1998), 105-112 and 117-120. [Ca^2+]i measurements were performed on mGluR1a transfected HEK-EBNA cells after incubation of the cells with Fluo-3 AM (0.5 µM final concentration) for 1 hour at 37 °C followed by 4 washes with assay buffer (DMEM supplemented with Hank's salt and 20 mM HEPES. [Ca^2+]i measurements were done using a fluorometric imaging plate reader (FLIPR, Molecular Devices Corporation, La Jolla, CA, USA). 10 µM glutamate as agonist was used to evaluate the potency of the antagonists.
Increasing concentrations of antagonists were applied to the cells 5 minutes prior to the application of the agonist. The inhibition (antagonists) curves were fitted with a four parameter logistic equation giving IC50, and Hill coefficient using the iterative nonlinear curve fitting software Origin (Microcal Software Inc., Northampton, MA, USA).

| IC50 [1] [µM] | IC50 [2] [µM] | Compound |
| --- | --- | --- |
| 0.018 | 0.008 | Cc1nc(N2CCc3ccccc3CC2)c([N+](=O)[O-])c(=O)n1CC(F)(F)F [Example 11, 2-Methyl-5-nitro-6-(1,2,4,5-tetrahydro-benzo[d]azepin-3-yl)-3-(2,2,2-trifluoro-ethyl)-3H-pyrimidin-4-one] |
| 0.33 | 0.088 | Cc1nc(N2CCc3ccccc3CC2)c(C#N)c(=O)[nH]1 [Example 17, 2-Methyl-6-oxo-4-(1,2,4,5-tetrahydro-benzo[d]azepin-3-yl)-1,6-dihydro-pyrimidine-5-carbonitrile] |
| 0.015 | 0.005 | CCNc1nc(N2CCc3ccccc3CC2)c(C#N)c(=O)[nH]1 [Example 25, 2-Ethylamino-6-oxo-4-(1,2,4,5-tetrahydro-benzo[d]azepin-3-yl)-1,6-dihydro-pyrimidine-5-carbonitrile] |
| 0.003 | 0.009 | CCn1c(N)nc(N2CCc3ccccc3CC2)c(C#N)c1=O [Example 30, 2-Amino-1-ethyl-6-oxo-4-(1,2,4,5-tetrahydro-benzo[d]azepin-3-yl)-1,6-dihydro-pyrimidine-5-carbonitrile] |
| 0.011 | 0.026 | Cc1nc(N2CCc3ccccc3CC2)c(C#N)c(=O)n1CC(F)(F)F [Example 78, 2-Methyl-6-oxo-4-(1,2,4,5-tetrahydro-benzo[d]azepin-3-yl)-1-(2,2,2-trifluoro-ethyl)-1,6-dihydro-pyrimidine-5-carbonitrile] |
| 0.72 | 0.1 | N#Cc1c(N2CCc3ccccc3CC2)nc2n(c1=O)CCC2 [Example 126, 4-Oxo-2-(1,2,4,5-tetrahydro-benzo[d]azepin-3-yl)-4,6,7,8-tetrahydro-pyrrolo[1,2-a]pyrimidine-3-carbonitrile] |
| 0.08 | 0.014 | CCn1c(C)nc(N2CCc3ccc(F)cc3CC2)c([N+](=O)[O-])c1=O [Example 132, 3-Ethyl-6-(7-fluoro-1,2,4,5-tetrahydro-benzo[d]azepin-3-yl)-2-methyl-5-nitro-3H-pyrimidin-4-one] |
| 0.01 | 0.21 | CCn1c(NC=O)nc(N2CCc3ccccc3CC2)c(C#N)c1=O [Example 154, N-[5-cyano-1-ethyl-6-oxo-4-(1,2,4,5-tetrahydro-benzo[d]azepin-3-yl)-1,6-dihydro-pyrimidin-2-yl]-formamide] |
| 0.088 | 0.97 | N#Cc1c(OCC(F)(F)F)nc(NCCCN2CCOCC2)nc1N1CCc2ccccc2CC1 [Example 174, 2-(3-Morpholin-4-yl-propylamino)-4-(1,2,4,5-tetrahydro-benzo[d]azepin-3-yl)-6-(2,2,2-trifluoro-ethoxy)-pyrimidine-5-carbonitrile] |
| 0.007 | 0.2 | N#Cc1c(OCC(F)(F)F)nc(NCCO)nc1N1CCc2ccccc2CC1 [Example 190, 2-(2-Hydroxy-ethylamino)-4-(1,2,4,5-tetrahydro-benzo[d]azepin-3-yl)-6-(2,2,2-trifluoro-ethoxy)-pyrimidine-5-carbonitrile] |
| 0.02 | 0.12 | CNn1c(C)nc(N2CCc3ccccc3CC2)c(C#N)c1=O [Example 214, 2-Methyl-1-methylamino-6-oxo-4-(1,2,4,5-tetrahydro-benzo[d]azepin-3-yl)-1,6-dihydro-pyrimidine-5-carbonitrile] |
| 0.002 | 0.038 | Cc1nc(N2CCc3ccccc3CC2)c(C#N)c(=O)n1OCC(F)(F)F [Example 220, 2-Methyl-6-oxo-4-(1,2,4,5-tetrahydro-benzo[d]azepin-3-yl)-1-(2,2,2-trifluoro-ethoxy)-1,6-dihydro-pyrimidine-5-carbonitrile] |
| 0.011 | 0.023 | CSc1nc(N)nc(N2CCc3ccccc3CC2)c1C#N [Example 249, 2-Amino-4-methylsulfanyl-6-(1,2,4,5-tetrahydro-benzo[d]azepin-3-yl)-pyrimidine-5-carbonitrile] |
